From patent US20260014192A1, “COMPOSITIONS AND USES THEREOF” (Optibiotix Limited, priority 2022, published 2026) come the findings set out here.

In experiment [1] the test system is gut microbiome. In words: pH-controlled anaerobic faecal cultures: organic acid production. The experiment is classed as cell-based. The conditions noted are these: FIG. 3C. The method, then: pH-controlled, anaerobic, faecal cultures were carried out to evaluate the impact of each test carbohydrate on gut microbiome composition and activity (organic acid production). The test carbohydrates were as follows: Inulin, Fructooligosaccharides (FOS), Xylooligosaccharides (XOS), gentiooligosaccharides (GeOS) and cellobiose.
(§1) All carbohydrates were tested in parallel, using the same faecal sample from a healthy donor. Fermentations were repeated using the faecal samples of each of 6 donors. Faeces in the absence of test substrate were used as the negative control in each run.

Experiment [2] relates to gut microbiome. In words: Non pH-controlled anaerobic faecal cultures: gas production. The experiment is classed as cell-based. Particulars: 6 donors, FIG. 1A. As to the method: Non pH-controlled, anaerobic, faecal cultures were investigated to evaluate the rate of gas production and cumulative gas production over 24 h in the presence of each test substrate.
as §1

As to `O=C[C@H](O)[C@@H](O)[C@H](O[C@@H]1O[C@H](CO)[C@@H](O)[C@H](O)[C@H]1O)[C@H](O)CO` [Cellobiose, cellobiose], the “lactate production / accumulation” value in the experiment with gut microbiome [1] was “high levels”. The “rate of gas production” value in the experiment with gut microbiome [2] is “significantly higher compared to all test substrates”.
